These results are taken from patent publication US9572813B2, “Antiviral agent” (SHIONOGI & CO., LTD., priority 2001, dated 2017).

Series [1] concerns the target integrase (Human immunodeficiency virus type 1 group M subtype B, UniProt P04585). In words: Integrase inhibition assay (microtiter plate strand transfer, substrate DNA/target DNA, anti-digoxigenin ELISA). Type of series: biochemical. As to conditions: concentration of the compound at percent inhibition 50%; 30° C. for 1 hour; OD at 405 nm; read-out: IC50 (converted). The protocol:
The inhibitory activities against integrase of the compounds in the present invention have been determined by the assay described below.
(1) Preparation of DNA Solutions.
Substrate DNA and target DNA, which sequences were indicated below, were synthesized by Amersham Pharmacia Biotech and dissolved in KTE buffer (composition: 100 mM KCl, 1 mM EDTA, 10 mM Tris-HCl (pH 7.6)) at concentration of 2 pmol/μl and 0.5 pmol/μl, respectively. The DNA solutions were annealed with each complement by slowly cooling after heating.
(2) Calculations of the Percent Inhibitions (the IC50 Values of Test Compounds)
Streptavidin, obtained from Vector Laboratories, was dissolved in 0.1 M carbonate buffer (composition: 90 mM Na2CO3, 10 mM NaHCO3) at concentration of 40 µg/ml. After coating each well of microtiter plates (obtained from NUNC) with 50 μL of the above solution at 4° C. over night, each well was washed twice with PBS (composition: 13.7 mM NaCl, 0.27 mM KCl, 0.43 mM Na2HPO4, 0.14 mM KH2PO4) and blocked with 300 μl of 1% skim milk in PBS for 30 min. Additionally, each well was washed twice with PBS and added 50 μl of substrate DNA solution (0.04 pmol/μl) diluted to one fiftieth with NTE buffer (composition: 1M NaCl, 10 mM Tris-HCl (pH8.0), 1 mM EDTA). The microtiter plates were kept at room temperature for 30 min. Then, each well was washed twice with PBS and once with H2O.
Subsequently, in the each well prepared above were added 45 μl of the reaction buffer prepared from 12 μl of the buffer (composition: 150 mM MOPS (pH 7.2), 75 mM MnCl2, 50 mM 2-mercaptoethanol, 25% glycerol, 500 μg/ml bovine serum albumin-fraction V), 1 μl of target DNA (5 pmol/μl), and 32 μl of the distilled water. Additionally, 6 μl of either a test compound in DMSO or DMSO for positive control (PC) was mixed with the above reaction buffer, then 9 μl of an integrase solution (30 pmol) was added and mixed well. In the well of negative control (NC) was added 9 μl of the integrase dilution buffer (composition: Hepes (pH7.6), 400 mM potassium glutamate, 1 mM EDTA, 0.1% NP-40, 20% glycerol, 1 mM DTT, 4M urea).
The microtiter plates were incubated at 30° C. for 1 hour. The reaction solution was removed and each well was washed twice with PBS. Subsequently, each well of the microtiter plates was filled with 100 μl of anti-digoxigenin antibody labeled with alkaline phosphatase (Sheep Fab fragment: obtained from Boehringer) and incubated at 30° C. for 1 hour. Then, each well was washed twice with 0.05% Tween20 in PBS and once with PBS. Next, 150 μl of the Alkaline phosphatase reaction buffer (composition: 10 mM p-Nitrophenylphosphate (obtained from Vector Laboratories), 5 mM MgCl2, 100 mM NaCl, 100 mM Tris-HCl (pH 9.5)) was added in each well. The microtiter plates were incubated at 30° C. for 2 hours. The optical density (OD) at 405 nm of each well was measured and the percent inhibition was determined by the following expression. The percent inhibition (%)=100[1−{(C abs.−NC abs.)/(PC abs.−NC abs.)}] • C abs.; the OD of the well of the • NC abs.: the OD of the negative control (NC) • PC abs.: the OD of the positive control (PC)
When the percent inhibition (%) is X % at the concentration of x μg/ml and the percent inhibition (%) is Y % at the concentration of y μg/ml, one of which is more than 50% and the other is less than 50%, IC50 can be determined by the following expression. IC50(μg/ml)=x−{(X−50),(x−y)/(X−Y)}
Compound No. in the Table 1 is the same as compound No. of the above example.

Molecules are shown by their SMILES. Some results are limits rather than exact numbers.

`O=C1C(O)=C(c2cc(CCc3ccccc3)ncn2)CN1C1CCCCC1` [Compound B-6-d, 1-Cyclohexyl-3-hydroxy-4-(6-phenethylpyrimidine-4-yl)-1,5-dihydropyrrole-2-one] displayed a melting point of 248 to 250 °C. Besides, the 50% inhibitory concentration (IC50) in series [1] was 6.6 µM.
Taken in the same sequence, the figures for `CN1CC(c2cc(OCc3ccccc3)ncn2)=C(O)C1=O` [Compound B-12, 4-(6-Benzyloxypyrimidine-4-yl)-3-hydroxy-1-methyl-1,5-dihydropyrrole-2-one] were 203 to 204 °C and 0.975 µM.
The corresponding values for `CN1CC(c2ccc(Cc3ccc(F)cc3)cn2)=C(O)C1=O` [Compound B-29, 4-[5-(4-Fluorobenzyl)-pyridine-2-yl]-3-hydroxy-1-methyl-1,5-dihydropyrrole-2-one] are 204 to 206 °C and 0.402 µM.
The corresponding values for `CN1CC(c2ncc(OCc3ccc(F)cc3)cn2)=C(O)C1=O` [Compound B-68, 4-[5-(4-fluorobenzyloxy)pyrimidine-2-yl]-3-hydroxy-1-methyl-1,5-dihydropyrrole-2-one] are 185 to 187 °C and 0.698 µM.
Take `O=c1c(O)c(-c2ccccn2)oc2cccc(OCc3ccc(F)cc3)c12` [Compound C-22, 5-[(4-fluorobenzyl)oxy]-3-hydroxy(2-pyridine-2-yl)-4H-1-benzopyrane-4-one]: the melting point worked out at 213 °C. The IC50 in series [1] was 1.32 µM.
Taken in the same sequence, the figures for `Cn1ncnc1-c1oc2cccc(OCc3ccc(F)cc3)c2c(=O)c1O` [Compound C-39, 5-[(4-fluorobenzyl)oxy]-3-hydroxy-2-(2-methyl-2H-[1,2,4]triazole-3-yl)-4H-1-benzopyrane-4-one] were 215 to 216 °C and 0.626 µM.
Taken in the same sequence, the figures for `O=c1c(O)c(-c2nnc(Cc3ccc(F)cc3)o2)[nH]c2ccccc12` [Compound D-5, 2-[5-(4-fluorobenzyl)-[1,3,4]oxadiazole-2-yl]-3-hydroxy-1H-quinoline-4-one] were over 300 °C and 1.33 µM.
The corresponding values for `O=C(c1ccc(Cc2ccc(F)cc2)o1)c1occc(=O)c1O` [Compound E-8, 2-[5-(4-fluorobenzyl)furan-2-carbonyl]-3-hydroxypyrane-4-one] are 157 to 159 °C and 0.445 µM.
`Cc1cc(=O)c(O)c(C(=O)c2ccc(Cc3ccc(F)cc3)o2)o1` [Compound E-16, 2-[5-(4-fluorobenzyl)furan-2-carbonyl]-3-hydroxy-6-methylpyrane-4-one] showed a melting point of 173 to 175 °C. Further, the IC50 in series [1] was 0.366 µM.
For `O=C1CCCC(C(=O)c2ccc(Cc3ccc(F)cc3)o2)=C1O` [Compound F-4, 3-[5-(4-fluorobenzyl)furan-2-carbonyl]-2-hydroxy-2-cyclohexene-1-one], the melting point was in the range of 133 to 134 °C. The IC50 in series [1] was 1.81 µM.
The corresponding values for `Cn1ccc(C(=O)c2ccc(Cc3ccc(F)cc3)o2)c(O)c1=O` [Compound J-4, 4-[5-(4-fluorobenzyl)furan-2-carbonyl]-3-hydroxy-1-methyl-1H-pyridine-2-one] are 145 to 147 °C and 0.794 µM.
Taken in the same sequence, the figures for `Cn1ccc(-c2nnc(Cc3ccc(F)cc3)o2)c(O)c1=O` [Compound K-4, 4-[5-(4-fluorobenzyl)-[1,3,4]oxadiazole-2-yl]-3-hydroxy-1-methyl-1H-pyridine-2-one] were 216 to 218 °C and 1.89 µM.
Taken in the same sequence, the figures for `Cc1[nH]cc(C(=O)c2ccc(Cc3ccc(F)cc3)o2)c(=O)c1O` [Compound M-6, 5-[5-(4-fluorobenzyl)furan-2-carbonyl]-3-hydroxy-2-methyl-1H-pyridine-4-one] were 190 to 192 °C and 8.86 µM.
